Laboratory results published in ChEMBL document CHEMBL3994642, “Design, synthesis and biological evaluation of 2-(4-phenylthiazol-2-yl) isoindoline-1,3-dione derivatives as anti-prostate cancer agents” (Bioorg Med Chem Lett, 2017).
Active and inactive are the calls of the source. The calls are words filed in the database; no cut-off is given here.

Experiments:
PC-3 = assay: Antiproliferative activity against AR negative human PC3 cells after 48 hrs by MTT assay; type: functional, cell-based; settings: PC-3, 48 h
[1] = Selectivity ratio of IC50 for AR negative human PC3 cells to IC50 for AR T877A mutant in human LNCAP cells
[2] = Selectivity index, ratio of IC50 for mouse 3T3 cells to IC50 for AR T877A mutant in human LNCAP cells; type: functional
[3] = tested on: Androgen receptor (Homo sapiens), P10275 [T878A]; assay: Potency index, ratio of R-bicalutamide IC50 to compound IC50 for AR T877A mutant in human LNCAP cells assessed as inhibition of DHT-induced proliferation; type: cell-based
[4] = tested on: Androgen receptor (Homo sapiens), P10275 [T878A]; assay: Antagonist activity at AR T877A mutant in human LNCAP cells assessed as inhibition of DHT-induced Cyclin D1 mRNA level at 1 uM after 24 hrs by SYBR Green dye based qPCR method; type: cell-based
[5] = tested on: Androgen receptor (Homo sapiens), P10275 [T878A]; assay: Antagonist activity at AR T877A mutant in human LNCAP cells assessed as inhibition of DHT-induced TMPRSS2 mRNA level at 1 uM after 24 hrs by SYBR Green dye based qPCR method; type: cell-based
[6] = tested on: Androgen receptor (Homo sapiens), P10275 [T878A]; assay: Antagonist activity at AR T877A mutant in human LNCAP cells assessed as inhibition of DHT-induced PSA mRNA level at 1 uM after 24 hrs by SYBR Green dye based qPCR method; type: cell-based
[7] = tested on: Androgen receptor (Homo sapiens), P10275 [T878A]; assay: Antagonist activity at AR T877A mutant in human LNCAP cells assessed as inhibition of DHT-induced c-Myc mRNA level at 1 uM after 24 hrs by SYBR Green dye based qPCR method; type: cell-based
[8] = tested on: Androgen receptor (Homo sapiens), P10275 [T878A]; assay: Potency index, ratio of bicalutamide IC50 to compound IC50 for AR T877A mutant in human LNCAP cells assessed as inhibition of DHT-induced proliferation; type: cell-based
[9] = molecular target: T1, Estrogen receptor (Homo sapiens) (UniProt P03372); assay: Activity at ER in human LNCAP cells assessed as inhibition of pS2 mRNA level at 5 uM after 24 hrs by SYBR Green dye based qPCR method; type: cell-based
T1 sequence (whole entry): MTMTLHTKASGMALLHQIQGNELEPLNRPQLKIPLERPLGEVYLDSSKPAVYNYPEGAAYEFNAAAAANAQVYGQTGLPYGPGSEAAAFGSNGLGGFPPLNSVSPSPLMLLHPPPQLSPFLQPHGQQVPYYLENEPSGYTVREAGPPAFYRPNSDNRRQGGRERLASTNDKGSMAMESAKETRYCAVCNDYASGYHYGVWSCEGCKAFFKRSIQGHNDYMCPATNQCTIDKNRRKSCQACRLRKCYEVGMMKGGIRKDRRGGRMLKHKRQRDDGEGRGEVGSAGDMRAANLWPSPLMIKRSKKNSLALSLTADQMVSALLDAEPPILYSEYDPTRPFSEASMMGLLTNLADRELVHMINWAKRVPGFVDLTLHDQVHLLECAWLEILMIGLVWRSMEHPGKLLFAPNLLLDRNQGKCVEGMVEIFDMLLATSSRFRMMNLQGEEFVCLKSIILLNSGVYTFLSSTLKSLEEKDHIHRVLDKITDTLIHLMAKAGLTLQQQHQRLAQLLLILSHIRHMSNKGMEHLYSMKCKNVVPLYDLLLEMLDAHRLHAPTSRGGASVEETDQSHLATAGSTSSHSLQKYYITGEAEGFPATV

Sequence of Androgen receptor (Homo sapiens), P10275 [T878A] (P10275 whole entry T878A): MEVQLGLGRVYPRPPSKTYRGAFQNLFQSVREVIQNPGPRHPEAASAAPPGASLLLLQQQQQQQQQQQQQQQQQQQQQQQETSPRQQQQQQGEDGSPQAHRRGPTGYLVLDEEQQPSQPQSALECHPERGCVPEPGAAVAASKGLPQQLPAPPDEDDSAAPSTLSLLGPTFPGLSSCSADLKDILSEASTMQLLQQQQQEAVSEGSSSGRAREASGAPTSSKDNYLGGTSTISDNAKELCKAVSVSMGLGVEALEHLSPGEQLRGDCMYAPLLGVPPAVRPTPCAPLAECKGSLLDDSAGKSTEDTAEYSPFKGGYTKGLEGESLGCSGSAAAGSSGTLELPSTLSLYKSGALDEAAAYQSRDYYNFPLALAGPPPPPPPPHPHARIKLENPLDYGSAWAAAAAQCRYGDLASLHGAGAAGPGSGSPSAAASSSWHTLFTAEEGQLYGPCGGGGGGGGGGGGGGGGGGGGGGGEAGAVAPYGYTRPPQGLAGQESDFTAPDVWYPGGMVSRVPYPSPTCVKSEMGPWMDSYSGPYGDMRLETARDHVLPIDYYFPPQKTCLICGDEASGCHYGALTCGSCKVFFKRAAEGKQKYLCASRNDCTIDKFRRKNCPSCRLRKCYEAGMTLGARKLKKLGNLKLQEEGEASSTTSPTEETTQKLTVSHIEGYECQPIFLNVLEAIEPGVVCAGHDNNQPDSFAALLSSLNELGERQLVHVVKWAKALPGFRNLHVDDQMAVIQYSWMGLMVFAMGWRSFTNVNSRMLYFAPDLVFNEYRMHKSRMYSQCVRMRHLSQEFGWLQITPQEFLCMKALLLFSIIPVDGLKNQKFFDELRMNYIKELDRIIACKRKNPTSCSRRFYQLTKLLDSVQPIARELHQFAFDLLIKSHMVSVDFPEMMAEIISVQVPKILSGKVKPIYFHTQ

SMILES | IC50 (PC-3) [µM] | Ratio IC50 [1] | Ratio IC50 [2] | other results
Cc1ccc(-c2csc(N3C(=O)c4ccc(F)cc4C3=O)n2)cc1 | 44.4 | 1.71 | 1.51 | 
CC(O)(CS(=O)(=O)c1ccc(F)cc1)C(=O)Nc1ccc(C#N)c(C(F)(F)F)c1 (stereo unspecified) [BICALUTAMIDE] | 60.7 |  |  | 
O=C1c2ccccc2C(=O)N1c1nc(-c2ccc(F)cc2)cs1 | 37.2 | 1.3 | 1.36 | 
O=C1c2ccc(F)cc2C(=O)N1c1nc(-c2ccccc2)cs1 | 40.2 | 1.17 | 1.9 | 
O=C1c2ccc(F)cc2C(=O)N1c1nc(-c2ccc(F)cc2)cs1 | 39.5 | 1.8 | 2.04 | 
O=C1c2ccccc2C(=O)N1c1nc(-c2ccc(Cl)cc2)cs1 | 44.9 | 1.71 | 1.91 | 
COc1ccc(-c2csc(N3C(=O)c4ccc(F)cc4C3=O)n2)cc1 | 41.3 | 5.05 | 5.04 | 
O=C1c2ccccc2C(=O)N1c1nc(-c2ccccc2)cs1 | 43.9 | 1.19 | 1.26 | 
Cc1ccc(-c2csc(N3C(=O)c4ccccc4C3=O)n2)cc1 | 38.4 | 1.32 | 1.73 | 
O=C1c2ccc(F)cc2C(=O)N1c1nc(-c2ccc([N+](=O)[O-])cc2)cs1 | 39.9 | 5.12 | 4.69 | 
N#Cc1ccc(-c2csc(N3C(=O)c4ccccc4C3=O)n2)cc1 | 40.3 | 3.67 | 3.57 | 
O=C1c2ccccc2C(=O)N1c1nc(-c2ccc([N+](=O)[O-])cc2)cs1 | 41.8 | 3.17 | 3.15 | 
N#Cc1ccc(-c2csc(N3C(=O)c4ccc(F)cc4C3=O)n2)cc1 | 43.1 | 7.23 | 7.09 | Ratio IC50 [3]: 4.6; inhibition [4]: Active; inhibition [5]: Active; inhibition [6]: Active; inhibition [7]: Active; Ratio IC50 [8]: 7.4; inhibition [9]: inactive
O=C1c2ccc(F)cc2C(=O)N1c1nc(-c2ccc(Cl)cc2)cs1 | 38 | 1.35 | 1.59 | 
COc1ccc(-c2csc(N3C(=O)c4ccccc4C3=O)n2)cc1 | 42.9 | 3.14 | 3.29 | 
C[C@](O)(CS(=O)(=O)c1ccc(F)cc1)C(=O)Nc1ccc(C#N)c(C(F)(F)F)c1 [(R)-BICALUTAMIDE] | 59.8 |  |  | 
